In a compilation of properties of binary mixtures (doi:10.1016/j.jct.2022.106909):

Experiment: xn = mol fraction of the nth substance listed
Details: 100 kPa

CC(=O)[O-].Cn1cc[n+](CCO)c1 + O
viscosity [mPa·s]
Details	288.15 K	293.15 K	298.15 K	303.15 K	308.15 K	313.15 K	318.15 K	323.15 K	328.15 K	333.15 K
x1 = 0.8317	73.1	54.2	–	–	–	20.52	16.8	13.96	11.73	9.95
x1 = 0.8632	95.7	71.8	53.8	41.9	32.2	–	20.74	17.07	14.25	12.06
x1 = 0.8712	102.6	74.7	–	–	33.3	–	21.56	17.7	–	12.4
x1 = 0.8818	112.8	83.4	62	47.1	–	–	23.58	–	16.02	–
x1 = 0.9003	127.4	–	69.5	52.7	40.8	32.2	25.9	21.33	17.64	–

CCC(=O)[O-].C[n+]1ccn(CCO)c1 + O
viscosity [mPa·s]
Details	288.15 K	293.15 K	298.15 K	303.15 K	308.15 K	313.15 K	318.15 K	323.15 K	328.15 K	333.15 K
x1 = 0.7595	173	126	–	70.4	57.5	45.1	36.6	30.3	25.1	21.1
x1 = 0.8082	194	145	108.2	80.5	65.2	48.5	38.9	–	–	22.2
x1 = 0.842	217	157	–	88.5	68.6	50.9	–	33.2	28.2	22.7
x1 = 0.8991	243	178	132	101.3	–	54	42.9	–	30.2	–
x1 = 0.9102	248	184	136	103.7	78.5	54.9	43.6	35.1	–	23.9
